Drawing on patent publication US20120046357A1, “Benzamide and Napthamide Derivatives Inhibiting Nuclear Factor-Kappa (B) - (NK-kB)” (Profectus Biosciences, Inc., priority 2009, published 2012), this text covers EC50, IC50 and inhibition for 12 compounds.

SMILES strings stand for the structures. Counter-ions that a name gives are not always drawn.

Test [1] deals with NF-κB. Put plainly: 293/NFkB-luc reporter cell assay (TNF-α induced luciferase expression). Type of test: cell-based. The note with it: 293 cells; for EC50: pNF-κB-luc reporter, 2 h pretreatment, 20 ng/ml TNF-α 18 h. Here is the method: (§1) Two reporter cell assays were used to determine the ability of the compound of Example 10 to inhibit NF-κB driven transcription. The first assay was a 293-cell based assay with a stably integrated pNF-κB-luc reporter plasmid containing 3 NF-κB promoter elements. The second assay was a 293-cell based assay with a stably integrated pTRH1-NF-κB-dscGFP reporter containing 4 NF-κB promoter elements. Cells were treated with 0, 0.2, 1, 10, 20 and 40 μM of the compound of Example 10 for 2 hours then were induced with 20 ng/ml TNF-α for 18 hours. Following the induction, luminescence or fluorescence was quantified using a Beckman-Coulter 2300 plate reader. […] These values represent the median value generated from three independent experiments. As a control, 0.5% DMSO treated and untreated cells were compared to verify that the compound of Example 10 had no effect on the expression of luciferase or in the readout of the assay. There was a slight decrease in the output from the assay in the DMSO treated population although it was not statistically significant. As a result of the controls, the decrease in activity in the drug treated samples was compared to the DMSO control sample.

For test [2], the system named is NF-κB. The test can be described thus: NF-κB/293/GFP reporter cell assay (TNF-α induced GFP expression). The note with it: for EC50: pTRH1-NF-κB-dscGFP reporter, 2 h pretreatment, 20 ng/ml TNF-α 18 h, read-out: NF-KB/293/GFP EC50. The class given is cell-based. How it is done:
as §1

Another test concerns the target T1, p65 (RelA) (Homo sapiens, UniProt Q04206).
T1 construct: purchased Active Motif
The test can be described thus: TransAM NF-κB family DNA binding ELISA, p65. Type of test: biochemical. As to conditions: binding to NF-κB consensus oligonucleotide. How it is done: (§2) The binding activity of NF-κB heterodimer or homodimer subunits from activated nuclear extracts or purified recombinant NF-κB proteins exposed to the drug compounds was evaluated using the TransAM NF-κB Family binding ELISA (Active Motif). 3-5 μg of nuclear extracts from TNFα activated Hela or Raji cells (Active Motif) or 20 ng of purified recombinant proteins (p65 and p50 from Active Motif, p52 from Santa Cruz) were incubated for 1 hour at room temperature with 20 μL drug compounds diluted in Complete Lysis buffer without DTT. Treated samples were then transferred to 30 μL Complete Binding Buffer (with DTT) in microplate wells pre-coated with the NF-κB consensus oligonucleotide. […] The plate was incubated for 1 hour at room temperature with gentle shaking and then washed 3 times with 200 μL 1× Wash Buffer. NF-κB p65, p50, p52, RelB, or c-Rel subunits bound to the plate were detected with 100 μL of the primary antibody (diluted 1:1000 in 1× Antibody Buffer) specific for that subunit. The plate was incubated for 1 hour at room temperature and then washed 3 times with 200 μL 1× Wash Buffer. Next, 100 μL of a HRP conjugated goat anti-rabbit antibody (diluted 1:1,000 in 1× Antibody Buffer) was added to each well. The plate was incubated for 1 hour at room temperature and then washed 4 times with 200 μL 1× Wash Buffer. 100 μL of room temperature Developing Solution was added to each well. The reaction was allowed to develop for 2-10 minutes until a medium dark blue color developed (depending on the subunit activity in the lot of extract or lot of recombinant protein used) and then the reaction was stopped with 100 μL Stop Solution yielding a yellow color. Absorbance was recorded using a Becton-Dickinson DTX 880 Multimode Detector at 450 nm with a reference wavelength subtracted at 620 nm. FIGS. 2, 3 and 4 illustrate the effect of Example 10 on inhibiting RelA, RelB and c-Rel binding to NF-κB sites.

The target of another test is T2, c-Rel (Homo sapiens, UniProt Q04864).
T2 sequence (Q04864 2-619 limits assumed): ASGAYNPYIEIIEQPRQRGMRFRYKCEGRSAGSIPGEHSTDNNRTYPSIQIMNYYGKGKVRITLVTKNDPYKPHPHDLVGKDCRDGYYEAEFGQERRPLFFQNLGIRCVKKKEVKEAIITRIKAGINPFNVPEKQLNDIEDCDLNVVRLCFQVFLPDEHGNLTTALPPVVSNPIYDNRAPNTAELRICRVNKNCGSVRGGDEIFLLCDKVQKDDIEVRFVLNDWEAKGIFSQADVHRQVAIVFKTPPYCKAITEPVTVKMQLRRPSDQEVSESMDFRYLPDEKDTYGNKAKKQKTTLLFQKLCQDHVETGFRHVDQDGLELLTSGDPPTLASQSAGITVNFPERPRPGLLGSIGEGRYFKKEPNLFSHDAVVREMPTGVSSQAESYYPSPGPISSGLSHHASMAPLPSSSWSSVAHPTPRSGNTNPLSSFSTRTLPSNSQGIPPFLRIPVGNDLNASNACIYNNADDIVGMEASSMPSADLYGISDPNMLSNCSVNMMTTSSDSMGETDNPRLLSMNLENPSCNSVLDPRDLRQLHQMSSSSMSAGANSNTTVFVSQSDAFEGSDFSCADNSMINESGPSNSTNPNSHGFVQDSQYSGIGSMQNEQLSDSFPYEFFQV
The test can be described thus: TransAM NF-κB family DNA binding ELISA, c-Rel. Type of test: biochemical. As to conditions: for IC50: binding to NF-κB consensus oligonucleotide, cells without % sign. Here is the method:
as §2

For another test, the target named is T3, RelB (Homo sapiens, UniProt Q01201).
T3 sequence (Q01201 1-579): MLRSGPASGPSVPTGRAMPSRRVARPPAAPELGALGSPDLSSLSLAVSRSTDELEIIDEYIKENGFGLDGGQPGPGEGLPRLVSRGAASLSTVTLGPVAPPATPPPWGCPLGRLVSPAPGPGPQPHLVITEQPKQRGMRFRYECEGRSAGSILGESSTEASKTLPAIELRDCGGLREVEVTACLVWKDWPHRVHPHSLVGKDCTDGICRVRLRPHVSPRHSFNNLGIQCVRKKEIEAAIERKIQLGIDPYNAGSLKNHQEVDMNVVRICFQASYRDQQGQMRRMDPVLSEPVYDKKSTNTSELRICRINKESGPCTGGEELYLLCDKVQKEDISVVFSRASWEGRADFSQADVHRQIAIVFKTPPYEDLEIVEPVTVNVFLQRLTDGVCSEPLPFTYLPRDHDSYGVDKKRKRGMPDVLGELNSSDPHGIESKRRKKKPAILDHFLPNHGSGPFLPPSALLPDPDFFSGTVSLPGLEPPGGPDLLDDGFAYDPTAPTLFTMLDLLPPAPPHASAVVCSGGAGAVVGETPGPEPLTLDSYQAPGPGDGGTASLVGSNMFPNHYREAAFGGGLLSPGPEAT
The test can be described thus: TransAM NF-κB family DNA binding ELISA, RelB. Type of test: biochemical. As to conditions: for IC50: binding to NF-κB consensus oligonucleotide, cells without % sign. Here is the method: as §2

[3] abbreviates: Homo sapiens, HEK293, 293 cells.

T1 sequence (Q04206 whole entry): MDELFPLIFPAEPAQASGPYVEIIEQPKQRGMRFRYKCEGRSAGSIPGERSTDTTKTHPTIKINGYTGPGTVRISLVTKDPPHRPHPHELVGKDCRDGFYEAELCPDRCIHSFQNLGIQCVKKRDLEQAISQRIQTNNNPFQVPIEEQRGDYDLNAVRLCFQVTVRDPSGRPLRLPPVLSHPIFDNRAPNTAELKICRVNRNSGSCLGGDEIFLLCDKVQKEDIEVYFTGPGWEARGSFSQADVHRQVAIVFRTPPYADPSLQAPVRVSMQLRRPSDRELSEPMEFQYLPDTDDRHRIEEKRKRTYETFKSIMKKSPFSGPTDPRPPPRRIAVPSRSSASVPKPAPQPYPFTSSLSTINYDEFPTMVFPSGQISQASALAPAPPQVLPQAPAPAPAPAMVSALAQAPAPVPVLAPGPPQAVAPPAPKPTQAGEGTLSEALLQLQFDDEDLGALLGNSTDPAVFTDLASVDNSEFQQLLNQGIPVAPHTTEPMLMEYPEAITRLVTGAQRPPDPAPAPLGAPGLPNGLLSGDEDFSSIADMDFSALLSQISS

Regarding `CN(C)c1ccc(C(=O)NC2=CC(=O)C3OC3C2O)c(O)c1` (racemic) [Example 10, (±)-4-(dimethylamino)-2-hydroxy-N-(2-hydroxy-5-oxo-7-oxabicyclo[4.1.0]hept-3-en-3-yl)benzamide], the EC50 in the test on NF-κB [1] (293/NFkB-luc) was found to be 8.7 µM; in the test with NF-κB [2] (setting [3]), 2.5 µM. Also, the IC50 amounted to 8.7 µM in the test on NF-κB [1] (Homo sapiens, HEK293, median of three independent experiments, 20 ng/ml TNF-α, read-out: median IC50, inhibition of expression of the luciferase gene); 2.5 µM in the test with NF-κB [2] (Homo sapiens, HEK293, median of three independent experiments, 293 cells, 20 ng/ml TNF-α, read-out: median IC50, inhibition of expression of the Green fluorescent protein gene); 3.9 µM on p65 (RelA); 17 µM at c-Rel; 23 µM at RelB.
As for `Cc1cccc(C(=O)NC2=CC(=O)C3OC3C2O)c1O` (racemic) [Example 4, (±)-2-hydroxy-N-(2-hydroxy-5-oxo-7-oxabicyclo[4.1.0]hept-3-en-3-yl)-3-methylbenzamide], the EC50 with NF-κB [1] (293/NFkB-luc) amounted to 19 µM; in the test with NF-κB [2] (setting [3]), 18 µM. For the same compound, at p65 (RelA), the IC50 is 36.3 µM. In addition, the figures for the inhibition at 5 µM at c-Rel and on RelB were 0% and 9%, respectively.
`COc1cc(N(C)C)ccc1C(=O)NC1=CC(=O)C2OC2C1O` (racemic) [Example 20, (±)-4-(dimethylamino)-N-(2-hydroxy-5-oxo-7-oxabicyclo[4.1.0]hept-3-en-3-yl)-2-methoxybenzamide]: the EC50 was determined as 4.6 µM with NF-κB [1] (293/NFkB-luc) and 1.3 µM with NF-κB [2] (setting [3]). For the same compound, the figures for the IC50 on p65 (RelA), on c-Rel and at RelB were 0.91 µM, 1.9 µM and 1 µM, respectively.
For the compound `CN(C)c1ccc(C(=O)NC2=CC(=O)C3OC3C2O)c(O)c1` (racemic) [Example 19, (±)-4-(dimethylamino)-2-hydroxy-N-(2-hydroxy-5-oxo-7-oxabicyclo[4.1.0]hept-3-en-3-yl)benzamide trifluoroacetate], the EC50 in the test on NF-κB [1] (trifluoroacetate) came out at 7.5 µM; with NF-κB [2] (293 cells, trifluoroacetate), 1.7 µM. Also, the IC50 was 3 µM on p65 (RelA), 14 µM on c-Rel and 3.3 µM at RelB.
With `O=C(NC1=CC(=O)C2OC2C1O)c1cccc(Cl)c1O` (racemic) [Example 6, (±)-3-chloro-2-hydroxy-N-(2-hydroxy-5-oxo-7-oxabicyclo[4.1.0]hept-3-en-3-yl)benzamide], the EC50 is 37 µM with NF-κB [1] (293/NFkB-luc) and 14 µM in the test on NF-κB [2] (setting [3]). Besides, the IC50 at p65 (RelA) is 19.4 µM. The inhibition at 5 µM was 7% at c-Rel and 13% on RelB.
On the same counts, the results for `COc1ccc(C(=O)NC2=CC(=O)C3OC3C2O)c(O)c1` (racemic) [Example 5, (±)-2-hydroxy-N-(2-hydroxy-5-oxo-7-oxabicyclo[4.1.0]hept-3-en-3-yl)-4-methoxybenzamide] are 32 µM, 6.1 µM, 14.2 µM, 6% and 17%.
As to `Cc1ccc(C(C)C)c(C(=O)NC2=CC(=O)C3OC3C2O)c1O` (racemic) [Example 17, (±)-2-hydroxy-N-(2-hydroxy-5-oxo-7-oxabicyclo[4.1.0]hept-3-en-3-yl)-6-isopropyl-3-methylbenzamide], the EC50 in the test with NF-κB [1] (293/NFkB-luc) worked out at 3.7 µM; in the test on NF-κB [2] (setting [3]), 6.7 µM. The IC50 was 295 µM on p65 (RelA), 232 µM at c-Rel and 82 µM on RelB.
Turning to `O=C(NC1=CC(=O)C2OC2C1O)c1ccc(C(F)(F)F)cc1O` (racemic) [Example 1, 2-hydroxy-N-(2-hydroxy-5-oxo-7-oxabicyclo[4.1.0]hept-3-en-3-yl)-4-(trifluoromethyl)benzamide], the EC50 in the test on NF-κB [1] (293/NFkB-luc) is 36 µM; in the test on NF-κB [2] (setting [3]) it was 3.4 µM. The half-maximal inhibitory concentration (IC50) at p65 (RelA) is 66.3 µM. Besides, the inhibition at 5 µM on c-Rel came to 1%; at RelB, 6%.
`COc1c(C(=O)NC2=CC(=O)C3OC3C2O)ccc(F)c1F` (racemic) [Example 16, (±)-3,4-difluoro-N-(2-hydroxy-5-oxo-7-oxabicyclo[4.1.0]hept-3-en-3-yl)-2-methoxybenzamide]: the EC50 in the test on NF-κB [1] (293/NFkB-luc) was 8.7 µM; in the test on NF-κB [2] (setting [3]) it was 2.6 µM. For the same compound, the figures for the IC50 on p65 (RelA), at c-Rel and on RelB were 1.5 µM, 8.1 µM and 2.1 µM, respectively.
Take `O=C(NC1=CC(=O)C2OC2C1O)c1cc(Br)ccc1O` (racemic) [Example 9, (±)-5-bromo-2-hydroxy-N-(2-hydroxy-5-oxo-7-oxabicyclo[4.1.0]hept-3-en-3-yl)benzamide]: the EC50 in the test on NF-κB [1] (293/NFkB-luc) was 27 µM; in the test on NF-κB [2] (setting [3]) it was 5.2 µM. At p65 (RelA), this compound gave an IC50 of 17.7 µM. Besides, the inhibition at 5 µM was 20% on c-Rel and 32% on RelB.
The corresponding values for `O=C(NC1=CC(=O)C2OC2C1O)c1ccc2ccccc2c1O` (racemic) [Example 8, (±)-1-hydroxy-N-(2-hydroxy-5-oxo-7-oxabicyclo[4.1.0]hept-3-en-3-yl)-2-naphthamide] are 7.1 µM, 7.1 µM, 45.2 µM, 3% and 15%.
Regarding `COc1ccc2cc(O)c(C(=O)NC3=CC(=O)C4OC4C3O)cc2c1` (racemic) [Example 11, (±)-3-hydroxy-N-(2-hydroxy-5-oxo-7-oxabicyclo[4.1.0]hept-3-en-3-yl)-7-methoxy-2-naphthamide], the EC50 turned out to be 7.7 µM with NF-κB [1] (293/NFkB-luc) and 5 µM in the test on NF-κB [2] (setting [3]). The IC50 was determined as 479 µM on p65 (RelA), 16 µM on c-Rel and 10 µM at RelB.
